Results reported in patent publication US20220380341A1, “INHIBITORS OF HIV-1 NEF FOR THE TREATMENT OF HIV DISEASE” (priority 2018, published 2022).
pKd: −log10 of the molar value. Where two headings read alike, the source gives them in different places.

Assays:
[1] = system: TZM-bl cell line; type: cell-based
Procedure, shortened: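 Luciferase read-out 48 h post-infection; compound at 1 μM during HIV-1NL4-3 infection of TZM-bl cells. Percent inhibition scaled to DMSO wild-type virus (0%) and DMSO Nef-defective virus (100% of Nef-dependent effect). Viability checked separately in uninfected cells by Cell Titer Blue.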

[2] = target: HIV-1 NefNL4-3 (Human immunodeficiency virus type 1 group M subtype B, UniProt P03406, A33V/T15A/T51N/V11I); assay: Surface plasmon resonance binding to recombinant full-length Nef (NL4-3); conditions: for RU30/RUNef (extent of binding): response units at 30 μM relative to Nef immobilized on the SPR chip
[3] = system: HIV-1NL4-3; assay: HIV-1 infectivity assay in TZM-bl reporter cell line (LTR-luciferase, 48 h); type: cell-based; conditions: for inhibition at 1 µM: Human immunodeficiency virus 1, TZM-bl
Procedure, shortened: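 Nef-dependent infectivity in TZM-bl cells: HIV-1NL4-3 infection with 1 μM compound, luciferase read at 48 h, normalized against DMSO wild-type and Nef-defective controls. Compound cytotoxicity in uninfected cells measured by Cell Titer Blue.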

[4] = 48 h, Table 1, TZM-bl cells, 1 μM, 48 h, 100% = Nef-defective HIV-1, read-out: HIV-1 Infectivity % Inhibition Norm. to Δ-Nef @ 1 μM
[5] = Nef NL4-3 Binding, SPR 2-state fitting KD, Table 1, 2-step induced-fit model
[6] = read-out: Nef NL4-3 Binding, SPR 1:1 or 2-site fitting KD2, Table 1, 2-site fit, second component
[7] = KD, M, Table 4, SPR fit 2-step induced fit, KD = koff/kon × koff2/(koff2 + kon2)
[8] = 1.0 μM, TZM-bl reporter cell line, Table 4, read-out: % Infectivity Inhibition
[9] = Table 1, 1:1 Langmuir fit where the KD2 cell says '1 to 1 fitting', else 2-site fit
[10] = KD, M, Table 4, SPR fit 1:1 Langmuir, KD = koff/kon
[11] = Table 4, 1:1 Langmuir fit, T = 1/koff

SMILES	Percent Viability @ 1 μM (TZM-bl cells) ([1]; human, 1 μM) [%]	pKd [2]	inhibition at 1 µM [3, 4] [%]	other results
O=S(=O)(C1CCCCC1)N1CCC(c2nn(-c3nc4ccccc4[nH]3)c(O)c2CCc2ccc(F)cc2)CC1 [Compound I-747, 1-(1H-1,3-benzodiazo1-2-y1)-3-[1-(cyclohexanesulfonyl)piperidin-4-yl]-4-[2-(4-fluorophenyl)ethyl]-1H-pyrazol-5-ol]				Percent Viability @ 1 μM (TZM-bl cells) [1]: 86.9%; Kd ([2]; KD, two-step induced-fit model, Reichert SPR, Table 3, read-out: Reichert SPR Nef NL43 (M) two-step fitting): 0.000257 M; pKd ([2]; Table 1, 1:1 Langmuir fit where the KD2 cell says '1 to 1 fitting', else 2-site fit, read-out: Nef NL4-3 Binding, SPR 1:1 or 2-site fitting KD1): 7.05; pKd ([2]; Table 1, 2-site fit, second component, read-out: Nef NL4-3 Binding, SPR 1:1 or 2-site fitting KD2): 5.81; pKd ([2]; Table 1, 2-step induced-fit model, read-out: Nef NL4-3 Binding, SPR 2-state fitting KD): 3.59; HIV Infectivity % Control @ 1 μM ([3]; 1 μM, TZM-bl reporter cells, % of control): 30.9%; HIV-1 Infectivity % Inhibition Norm. to Δ-Nef @ 1 μM ([3]; 1 μM, TZM-bl, normalized: DMSO wild-type HIV-1 = 0%, Nef-defective HIV-1 = 100%): 179.3%; HIV-1 Infectivity % Inhibition Norm. to Δ-Nef @ 1 μM ([3]; Table 1, TZM-bl cells, 1 μM, 48 h, 100% = Nef-defective HIV-1): 179.3%
O=S(=O)(C1CC1)N1CCC(c2nn(-c3nc4ccccc4[nH]3)c(O)c2CCc2ccc(F)cc2)CC1 [Compound I-748, 1-(1H-1,3-benzodiazol-2-yl)-3-[1-(cyclopropanesulfonyl)piperidin-4-yl]-4-[2-(4-fluorophenyl)ethyl]-1H-pyrazol-5-ol]	94.8	5.38	22.3	
Nc1ccc(S(=O)(=O)N2CCC(c3nn(-c4nc5ccccc5[nH]4)c(O)c3CCc3ccc(F)cc3)CC2)cc1 [Compound I-749, 3-[1-(4-aminobenzenesulfonyl)piperidin-4-yl]-1-(1H-1,3-benzodiazol-2-yl)-4-[2-(4-fluorophenyl)ethyl]-1H-pyrazol-5-ol]	78.7	8.90	64.1	pKd [2, 5]: 6.40; pKd [2, 6]: 6.12
CC(C)CS(=O)(=O)N1CCC(c2nn(-c3nc4ccccc4[nH]3)c(O)c2CCc2ccc(F)cc2)CC1 [Compound I-750, 1-(1H-1,3-benzodiazol-2-yl)-4-[2-(4-fluorophenyl)ethyl]-3-[1-(2-methylpropanesulfonyl)piperidin-4-yl]-1H-pyrazol-5-ol]	93.0	9.86	63.7	pKd [2, 5]: 5.94; pKd [2, 6]: 9.24
CC(C)S(=O)(=O)N1CCC(c2nn(-c3nc4ccccc4[nH]3)c(O)c2CCc2ccc(F)cc2)CC1 [Compound I-751, 1-(1H-1,3-benzodiazol-2-yl)-4-[2-(4-fluorophenyl)ethyl]-3-[1-(propane-2-sulfonyl)piperidin-4-yl]-1H-pyrazol-5-ol]	101.1	6.25	22.3	
O=S(=O)(C1CCCC1)N1CCC(c2nn(-c3nc4ccccc4[nH]3)c(O)c2CCc2ccc(F)cc2)CC1 [Compound I-753, 1-(1H-1,3-benzodiazol-2-yl)-3-[1-(cyclopentanesulfonyl)piperidin-4-yl]-4-[2-(4-fluorophenyl)ethyl]-1H-pyrazol-5-ol]	95.8	7.69	76.5	
CC(=O)N1CCCC(c2nn(-c3nc4ccccc4[nH]3)c(O)c2CCc2ccc(F)cc2)C1 (stereo not shown) [Compound I-754, 1-{3-[1-(1H-1,3-benzodiazol-2-yl)-4-[2-(4-fluorophenyl)ethyl]-5-hydroxy-1H-pyrazol-3-yl]piperidin-1-yl}ethan-1-one]	97.2	6.32	37.4	% Cell Viability ([1]; human, 1 μM): 97.2%; pKd [2, 7]: 10.63; pKd [2, 5]: 10.63; T, minutes (residence time) ([2]; Table 4, 2-step induced fit, T = 1/koff2): 8.05E + 05 minutes; pKd [2, 6]: 5.14; RU30/RUNef (extent of binding) [2]: 5.14E- 03; inhibition at 1 µM [3, 8]: 37.4%
O=C(c1cnccn1)N1CCCC(c2nn(-c3nc4ccccc4[nH]3)c(O)c2CCc2ccc(F)cc2)C1 (stereo not shown) [Compound I-756, 1-(1H-1,3-benzodiazol-2-yl)-4-[2-(4-fluorophenyl)ethyl]-3-[1-(pyrazine-2-carbonyl)piperidin-3-yl]-1H-pyrazol-5-ol]	101.9		34.3	Nef NL4-3 Binding, SPR 1:1 or 2-site fitting KD1 [2, 9]: No Interaction
O=C(Cc1ccncc1)N1CCCC(c2nn(-c3nc4ccccc4[nH]3)c(O)c2CCc2ccc(F)cc2)C1 (stereo not shown) [Compound I-757, 1-{3-[1-(1H-1,3-benzodiazol-2-yl)-4-[2-(4-fluorophenyl)ethyl]-5-hydroxy-1H-pyrazol-3-yl]piperidin-1-yl}-2-(pyridin-4-yl)ethan-1-one]	102.8	5.62	17.2	
O=S(=O)(c1cccnc1)N1CCCC(c2nn(-c3nc4ccccc4[nH]3)c(O)c2CCc2ccc(F)cc2)C1 (stereo not shown) [Compound I-758, 1-(1H-1,3-benzodiazol-2-yl)-4-[2-(4-fluorophenyl)ethyl]-3-[1-(pyridine-3-sulfonyl)piperidin-3-yl]-1H-pyrazol-5-ol]	99.8	7.20	54.9	% Cell Viability ([1]; human, 1 μM): 99.8%; pKd [2, 10]: 7.17; T, minutes (residence time) [2, 11]: 9.21E + 01 minutes; RU30/RUNef (extent of binding) [2]: 2.95E- 03; inhibition at 1 µM [3, 8]: 54.9%
O=C(c1cnccn1)N1CCCC1c1nn(-c2nc3ccccc3[nH]2)c(O)c1CCc1ccc(F)cc1 (stereo not shown) [Compound I-759, 1-(1H-1,3-benzodiazol-2-yl)-4-[2-(4-fluorophenyl)ethyl]-3-[1-(pyrazine-2-carbonyl)pyrrolidin-2-yl]-1H-pyrazol-5-ol]	98.2	6.66	-7.6	
O=C(Cc1ccncc1)N1CCCC1c1nn(-c2nc3ccccc3[nH]2)c(O)c1CCc1ccc(F)cc1 (stereo not shown) [Compound I-760, 1-{2-[1-(1H-1,3-benzodiazol-2-yl)-4-[2-(4-fluorophenyl)ethyl]-5-hydroxy-1H-pyrazol-3-yl]pyrrolidin-1-yl}-2-(pyridin-4-yl)ethan-1-one]	96.8	6.11	46.5	% Cell Viability ([1]; human, 1 μM): 96.8%; pKd [2, 10]: 6.11; T, minutes (residence time) [2, 11]: 7.31E + 00 minutes; RU30/RUNef (extent of binding) [2]: 1.38E- 03; inhibition at 1 µM [3, 8]: 46.5%
CC(C)(O)C(=O)N1CCCC1c1nn(-c2nc3ccccc3[nH]2)c(O)c1CCc1ccc(F)cc1 (stereo not shown) [Compound I-761, 1-{2-[1-(1H-1,3-benzodiazol-2-yl)-4-[2-(4-fluorophenyl)ethyl]-5-hydroxy-1H-pyrazol-3-yl]pyrrolidin-1-yl}-2-hydroxy-2-methylpropan-1-one]	101.5	6.07	-3.8	
O=C(c1c(O)cc(O)cc1O)N1CCCC1c1nn(-c2nc3ccccc3[nH]2)c(O)c1CCc1ccc(F)cc1 (stereo not shown) [Compound I-762, 2-{2-[1-(1H-1,3-benzodiazol-2-yl)-4-[2-(4-fluorophenyl)ethyl]-5-hydroxy-1H-pyrazol-3-yl]pyrrolidine-1-carbonyl}benzene-1,3,5-triol]	98.9	6.56	25.7	% Cell Viability ([1]; human, 1 μM): 98.6%; pKd [2, 7]: 8.40; pKd [2, 5]: 8.40; pKd [2, 6]: 5.13; inhibition at 1 µM [3, 8]: 25.7%
O=C(CN1CCOCC1)N1CCCC1c1nn(-c2nc3ccccc3[nH]2)c(O)c1CCc1ccc(F)cc1 (stereo not shown) [Compound I-763, 1-{2-[1-(1H-1,3-benzodiazol-2-yl)-4-[2-(4-fluorophenyl)ethyl]-5-hydroxy-1H-pyrazol-3-yl]pyrrolidin-1-yl}-2-(morpholin-4-yl)ethan-1-one]	97.6	6.37	11	
O=C(OCc1ccccc1)N1CCC(Cc2nn(-c3nc4ccccc4[nH]3)c(O)c2CCc2ccc(F)cc2)CC1 [Compound I-764, benzyl4-{[1-(1H-1,3-benzodiazol-2-yl)-4-[2-(4-fluorophenyl)ethyl]-5-hydroxy-1H-pyrazol-3-yl]methyl}piperidine-1-carboxylate]	100.6		47.4	Nef NL4-3 Binding, SPR 1:1 or 2-site fitting KD1 [2, 9]: No Interaction
O=C(C1CCOC1)N1CCC(Cc2nn(-c3nc4ccccc4[nH]3)c(O)c2CCc2ccc(F)cc2)CC1 (stereo not shown) [Compound I-765, 1-(1H-1,3-benzodiazol-2-yl)-4-[2-(4-fluorophenyl)ethyl]-3-{[1-(oxolane-3-carbonyl)piperidin-4-yl]methyl}-1H-pyrazol-5-ol]	99.3		13.5	Nef NL4-3 Binding, SPR 1:1 or 2-site fitting KD1 [2, 9]: No Interaction
O=C(c1cccc(O)n1)N1CCC(Cc2nn(-c3nc4ccccc4[nH]3)c(O)c2CCc2ccc(F)cc2)CC1 [Compound I-766, 6-(4-{[1-(1H-1,3-benzodiazol-2-yl)-4-[2-(4-fluorophenyl)ethyl]-5-hydroxy-1H-pyrazol-3-yl]methyl}piperidine-1-carbonyl)pyridin-2-ol]	99.5	6.32	46.9	
